US6716858B1, “Methods for inhibiting diabetic complications” (Kansas University Medical Center, priority 1995, dated 2004)
Read-outs that look alike come from different tables or passages of the source.

Legend:
[1] = tested on: Sprague-Dawley rats, glomerular changes; assay type: in vivo, rat; settings: for effect of treatment on loss of Heparan Sulfate Proteoglycan side-chain staining (mAb JM-403): rats injected with Amadori-RSA or AGE-RSA (both cases); for microalbuminuria / albuminuria: rats receiving Amadori-RSA or AGE-RSA
Protocol: Male Sprague-Dawley rats (Sasco, 100 g) were used. After a 1 week adaptation period, rats were placed in metabolic cages to obtain a 24 hour urine specimen for 2 days before administration of injections. Rats were then divided into experimental and control groups and given tail vein injections with either saline, unmodified RSA (50 mg/kg), Amadori-RSA (50 mg/kg), NaBH4-reduced Amadori-RSA (50 mg/kg), or AGE-RSA (50 mg/kg).
Rats injected with Amadori-RSA and AGE-RSA were then either left untreated, or further treated by the administration of either aminoguanidine (AG; 25 mg/kg), pyridoxamine (PM; 25 mg/kg), or a combination of AG and PM (10 mg/kg each) through the drinking water. Body weight and water intake of the rats were monitored weekly in order to adjust dosages. At the conclusion of the experimental study the rats were placed in metabolic cages to obtain 24 hour urine specimen for 2 days prior to sacrificing the animals.
After perfusion with saline, kidney sections were fixed in ice-cold 10% neutral buffered formalin. Paraffin-embedded tissue sections from all rat groups (n=4 per group) were processed for staining with Harris' alum hematoxylin and eosin (H&E), perodic acid/Schiff reagent (PAS), and alcian blue (pH 1.0 and pH 2.5) stains for histological examination. The alcian blue sections were scored by two investigators in a blinded fashion.
Parrafin-embedded sections were deparaffinized and then blocked with 10% goat serum in PBS for 30 min at room temperature. […] The sections were then rinsed for 30 min with PBS in the dark, mounted in aqueous mounting media for immunocytochemistry (Biomeda), and cover slipped. Sections were scored in a blinded fashion. Kidney sections were evaluated by the number and intensity of glomerular staining in 5 regions around the periphery of the kidney. Scores were normalized for the immunofluorescent score per 100 glomeruli with a scoring system of 0-3.
All animals studies were carried out in conformance with institutional guidelines for animal research protocols. Male Sprague-Dawley 100 g rats (Sasco Co., Omaha Nebr.) were used in these studies. After a 1 week adaptation period, rats were placed in metabolic cages for 2 days to get two 24 hour urine specimens before starting treatment. Rats were then given daily single tail vein injections for 6 weeks according to the following treatment groups: saline, unmodified RSA (50 mg/kg), Amadori-RSA (50 mg/kg), NaBH4-reduced Amadori-RSA (50 mg/kg), and AGE-RSA (50 mg/kg). Groups of rats injected with Amadori-RSA or AGE-RSA were also administered aminoguanidine (25 mg/kg/day), pyridoxamine (25 mg/kg/day), a combination of the two (10 mg/kg/day each), or with nothing added to the drinking water. Body weight and water intake of the rat were monitored weekly in order to adjust dosages. At the conclusion of the study, the rats were placed in metabolic cages for two days to get two 24 hour urine specimens before sacrificing the animals.
Total protein in urine was determined by Bio-Rad assay. Albumin in urine was determined by competitive ELISA using rabbit anti-rat serum albumin (Cappell) as primary antibody (1:2000) and goat anti-rabbit IgG (Sigma) as a secondary antibody (1:2000). Urine was tested with Multistix 8 SG (Miles) for glucose, ketone, specific gravity, blood, pH, protein, nitrite and leukocytes. Creatinine measurements were performed with a Beckman creatinine analyzer II. Intracardiac blood samples were collected before termination and were used in the determination of creatinine clearance, blood glucose (glucose oxidase, Sigma), fructosamine (nitroblue tetrazolium, Sigma), and glycated Hb (Glycotest II analytical boronate columns, Pierce).
After perfusion with saline, kidney sections were fixed in ice-cold 10% neutral buffered formalin. […]

[2] = tested on: AGE formation during uninterrupted glycation of human methemoglobin (Hb) by ribose; assay: Uninterrupted ribose glycation assay, Hb; assay type: biochemical; settings: 0.05 M ribose, 3 weeks
Protocol: (§1) ELISA detection of AGE products. The general method of Engvall (1981, Methods Enzymol. 70:419-439) was used to perform the ELISA. Typically, glycated protein samples were diluted to approximately 1.5 ug/ml in 0.1 M sodium carbonate buffer of pH 9.5 to 9.7. The protein was coated overnight at room temperature onto 96-well polystyrene plates by pippetting 200 ul of the protein solution in each well (0.3 ug/well). After coating, the protein was washed from the wells with a saline solution containing 0.05% Tween-20. The wells were then blocked with 200 ul of 1% casein in carbonate buffer for 2 h at 37° C. followed by washing. […] In order to minimize background readings, antibodies R479 used to detect glycated RNase were raised against glycated BSA, and antibodies R618 used to detect glycated BSA and glycated Hb were raised against glycated RNase. […] The p-nitrophenylphosphate substrate solution was then added (200 ul/well) to the plates, with the absorbance of the released p-nitrophenolate being monitored at 410 nm with a Dynatech MR 4000 microplate reader.
Uninterrupted ribose glycation assays Bovine serum albumin, ribonuclease A, and human hemoglobin were incubated with ribose at 37° C. in 0.4 M sodium phosphate buffer of pH 7.5 containing 0.02% sodium azide. […] Aliquots were taken and immediately frozen until analyzed by ELISA at the conclusion of the reaction. […]

[3] = tested on: glycation of ribonuclease A (RNase); assay: Uninterrupted glycation of ribonuclease A with glucose, anti-AGE ELISA; assay type: biochemical, bovine; settings: RNase 1 mg/ml, 1.0 M glucose, 6 weeks; inhibitors 0.5, 3, 15 and 50 mM
Protocol: Uninterrupted Glycation with Glucose Bovine serum albumin, ribonuclease A, and human hemoglobin were incubated with glucose at 37° C. in 0.4 M sodium phosphate buffer of pH 7.5 containing 0.02% sodium azide. The protein, glucose (at 1.0 M), and prospective inhibitors (at 0.5, 3, 15 and 50 mM) were introduced into the incubation mixture simultaneously. Solutions were kept in the dark in capped tubes. Aliquots were taken and immediately frozen until analyzed by ELISA at the conclusion of the reaction. The incubations were for 3 weeks (Hb) or 6 weeks (RNase, BSA).
as §1, with “9.7.” for “9.7. The protein was coated overnight at room temperature onto 96-well polystyrene plates by pippetting 200 ul of the protein solution in each well (0.3 ug/well). After coating, the protein was washed from the wells with a saline solution containing 0.05% Tween-20. The wells were then blocked with 200 ul of 1% casein in carbonate buffer for 2 h at 37° C. followed by washing.”

[4] = 6 weeks, n = 4, average with standard error
[5] = Amadori-RSA injected rats, 6 weeks
[6] = rats injected with Amadori-RSA or AGE-RSA

With Cc1ncc(CO)c(CN)c1O [pyridoxamine] the “Alcian Blue pH 1.0, scoring of glomerular staining (sulfated glycosaminoglycans)” value [1, 4] was 2.62 ± 0.24, the “Alcian Blue pH 2.5, scoring of glomerular staining (acidic glycosaminoglycans)” value [1, 4] was 1.56 ± 0.21 and the “HS core protein (Ab BL-31), scoring of glomerular staining” value [1, 4] was 234 ± 8. The “effect of treatment on glomerular albumin cross-linking” value ([1]; AGE-RSA injected rats) was “completely blocked”, the “effect of treatment on glomerular volume (GV)” value (from here on “effect of treatment … (GV)”) ([1]; AGE-RSA injected rats, 6 weeks) was “completely prevented” and the “effect of treatment on glomerular albumin cross-linking” value ([1]; Amadori-RSA injected rats) was “significantly lower cross-linking than Aminoguanidine”. The “effect of treatment … (GV)” value [1, 5] was “no significant changes from controls”, the “Creat C-2wk” value ([1]; creatinine clearance at 2 weeks, n = 4) was 0.66 ± 0.07 ml/(min*100g) and the “Creat C-6wk” value ([1]; creatinine clearance at 6 weeks, n = 4) was 0.66 ± 0.17 ml/(min*100g). The “effect of treatment on elevated glomerular staining for RSA” value [1, 6] was “Significant reduction of this effect”, the “effect of treatment on increase in average glomerular volume” value [1, 6] was “A significant reduction of this effect” and the “effect of treatment on reduced Heparan Sulfate Proteoglycan Core protein staining” value [1, 6] was “A reduction of this effect”. The “effect of treatment on loss of Heparan Sulfate Proteoglycan side-chain staining (mAb JM-403)” value [1] was “completely prevented this loss”, the “effect of treatment on loss of Heparan Sulfate Proteoglycan side-chain staining (mAb JM-403)” value ([1]; listed as PM) was “A significant reduction of this effect” and the microalbuminuria / albuminuria ([1]; 6 weeks) was “very low intra-group scatter and to the lowest means”. The microalbuminuria / albuminuria ([1]; 6 weeks, listed as PM) was “none was seen if PM was co-administered”, the “inhibition of overall kinetics of AGE formation from ribose” value [2] was “showed the greatest inhibition at concentrations of 3 mM and above” and the “inhibition of antigenic AGE formation (ELISA)” value [3] was “more effective that aminoguanidine”.
N=C(N)NN [aminoguanidine, reference compound] was tested, and the “effect of treatment on glomerular albumin cross-linking” value ([1]; AGE-RSA injected rats) was “intermediate results but did not lead to statistically significant differences from either the controls or from the untreated subgroup”, the “effect of treatment … (GV)” value ([1]; AGE-RSA injected rats, 6 weeks) was “significant elevation in GV persisted” and the “effect of treatment on HS loss” value ([1]; Amadori-RSA injected rats) was “appeared to not prevent this loss”. The “effect of treatment … (GV)” value [1, 5] was “No statistically significant differences”, the “effect of treatment on elevated glomerular staining for RSA” value [1, 6] was “not with AG” and the “effect of treatment on increase in average glomerular volume” value [1, 6] was “No effect”.
In the case of Cc1ncc(C[n+]2csc(CCO[P@](=O)(O)OP(=O)(O)O)c2C)c(N)n1 [thiamine pyrophosphate], the “inhibition of antigenic AGE formation (ELISA)” value [3] is reported as “more effective that aminoguanidine”.
